Data set [1] concerns mammalian polyamine carrier. In words: Determination of polyamine uptake activity: inhibition of diamine and polyamine transport in T-47D cells. It counts as cell-based, human. Conditions: for Ki: mean±SD. As to the method: The rate of diamine and polyamine transport was determined in T-47D and ZR-75-1 cells incubated in serum-free RPMI 1640 medium as previously described (U.S. Pat. No. 6,083,496; Covassin et al. (1999) Bioorg. Med. Chem. Lett. 9, 1709-1714), using 20 μM [^3H]putrescine (179 Ci/mol), 5 μM [^3H]spermidine (246 Ci/mol) and 3 μM [^14C]spermine (300-400 mCi/mol) respectively, as substrates for a 20-min assay period. Uptake activity was expressed per amount of DNA as fluorometrically determined using 3,5-diaminobenzoic acid (Simard et al. (1990) Endocrinology 126, 3223-3231). Kinetic parameters of polyamine transport inhibition for the transport antagonists were determined by Lineweaver-Burke analysis of uptake activity in the presence of 0.1 μM [^3H]putrescine, 0.03 μM [^3H]spermidine, and 0.01 μM [^14C]spermine plus increasing concentrations of nonradioactive substrate. For competitive inhibitors, Ki values were estimated by iterative curve fitting for sigmoidal equations describing transport rates in the presence of increasing concentrations of antagonist, using the Cheng-Prusoff equation for competitive inhibition (U.S. Pat. No. 6,083,496).
The ability of BSD and BNSD compounds to inhibit uptake of the main natural substrates of the mammalian polyamine carrier, namely putrescine, spermidine and spermine, was evaluated using T-47D human breast cancer cells (Table 1).
Data are presented as the mean±SD of at least two independent determinations of IC50 values, each based on triplicate determinations of uptake velocity at increasing inhibitor concentrations.
The potency of the polyamines and their xylylated dimers as competitive inhibitors of spermidine transport was evaluated in the T-47D human breast cancer cell line (Table 2).

For data set [2], the system named is T-47D cells. In words: Effect of inhibitors on T-47D cell proliferation (DNA content). It counts as cell-based, human. On the procedure:
FIGS. 3A and 3B are graphs showing the effect compounds used in a method according preferred embodiment of the present invention, on cell proliferation. In particular, they relate to the effect of selected BSD and BNSD derivatives on T-47D cell proliferation. Cells were incubated for 9 d with the indicated concentrations of BSD-2 (∘), BNSD-4 (●), BSD-4 (□), BNSD-6 (▪), BSD-10 (Δ), BSD-4-ene (▴) and BSD-4-yne (▾) in medium containing 1 mM aminoguanidine, and total DNA content per culture was then determined. B, Effect of BNSD-X (N,N,N′,N′-tetrakis-(3-aminopropyl)-p-diaminoxylene) on cell proliferation in various mammalian cell lines. Jurkat (∘), LAN-1 (●), L1210 (□), T-47D (▪), ZR-75-1 (Δ) and MDA-MB-231 (▴) cells were grown to near confluency or saturation (for 4 to 11 d according to the cell line considered) with the indicated concentrations of BNSD-X in the presence of 1 mM aminoguanidine, and total DNA content per culture was then determined. Data are given as the mean±SD for triplicate cultures from one out of at least two identical experiments;
FIGS. 4A and 4B are graphs showing how compounds used in a method according to a preferred embodiment are differentially sensitive to degradation by BSAO (bovine serum amine oxidase). In particular, T-47D cells were incubated for 9 d with the indicated concentrations of BSD-X (∘), BNSD-X (●), BSD-3 (□) or BNSD-3 (▪) in the absence (A) or presence of 1 mM aminoguanidine (B), and total DNA content per culture was then determined. Data are presented as the mean±SD for triplicate cultures from one representative experiment;
The effect of transport inhibitors on cell proliferation was evaluated by determination of cell number (L1210, Jurkat) using electronic sizing with a Model ZM Coulter counter (Coulter Electronics, Hialeah, Fla.), or DNA content per culture (for all other cell lines) with the 3,5-diaminobenzoic acid assay. […] Cytotoxicity of the inhibitors was determined in the presence or absence of aminoguanidine, and was confirmed by a trypan blue exclusion assay.

In data set [3] the test system is T-47D cells. In words: Reversal of DFMO-induced cytostasis by exogenous spermidine in T-47D cells. Format: cell-based, human. Conditions: T-47D cells with extracellular spermidine and DFMO. On the procedure:
FIGS. 6A, 6B, 6C and 6D are graph showing that antagonism of DFMO-induced cytostasis by exogenous spermidine depends on the polyamine and linker structure of the compounds used in a method according to a preferred embodiment of the invention. In particular, T-47D cells were grown for 8-9 d with the indicated concentrations of spermidine in medium containing 1 mM aminoguanidine, in the presence of DFMO (●), transport inhibitor (□), DFMO plus transport inhibitor (▪), or in the absence of either agent (∘), and total DNA content per culture was then determined. Panels A, B, C, and D describe the effect of BNSD-X, BSD-X, BNSD-3 and BSD-3, respectively. Data are presented as the mean±SD for triplicate cultures from one out of at least two identical experiments;
(§1) FIGS. 8A and 8B are graphs representing the time course of the effect of a compound used in a method according to a preferred embodiment of the invention on rescue of DFMO-induced cytostasis by exogenous spermidine. In particular, at time zero, T-47D (panel A) or CHO-K1 (panel B) were seeded at 1×10^4 or 5×10^3 cells/well, respectively, in medium containing 1 mM aminoguanidine, plus either 0.3 μM spermidine (Spd, ●), 2 mM DFMO (□), Spd+DFMO (▪), 50 μM (A) or 100 μM (B) BNSD-X (Δ), BNSD-X+Spd (▴), BNSD-X+DFMO (□), BNSD-X+Spd+DFMO (▾), or vehicle only (∘). At the indicated time, total DNA content/well was determined. Data are presented as the mean±SD for triplicate cultures from one representative experiment;
(§2) To determine the ability of polyamine transport antagonists to potentiate DFMO-induced inhibition of cell proliferation in the presence of exogenous polyamines, cells were grown for the indicated period in growth medium supplemented with 1 mM aminoguanidine, and either DFMO (1 to 5 mM), the indicated transport inhibitor (50 or 100 μM), or the combination thereof, as well as increasing concentrations of spermidine (0.1 to 300 μM). Fresh medium was added every other day, and cell mass was determined at various time points during the period of exponential growth, or at the end of the experimental period. For the latter experiments, the FBS supplement was replaced with dextran-coated charcoal-treated FBS (5%, v/v) plus 0.5 μg/ml insulin in the case of T-47D, ZR-75-1 and MCF-7 cells (U.S. Pat. No. 6,083,496).

The next data set has as its system CHO-K1 cells. In words: Reversal of DFMO-induced cytostasis by exogenous spermidine in CHO-K1 cells. Format: cell-based, Chinese hamster. Conditions: DFMO-treated CHO-K1 cells with extracellular spermidine; data not shown. On the procedure:
as §1, §2

The subject of data set [4] is CHO-K1, Jurkat, L1210, MDA-MB-231, ZR-75-1 and MCF-7 cells. In words: Reversal of DFMO-induced cytostasis by exogenous spermidine in a variety of mammalian cell lines. It counts as cell-based. Particulars: most cell lines; concentrations as low as. On the procedure: FIGS. 5A, 5B, 5C, 5D, 5E and 5F are graphs representing that a compound used in a method according to a preferred embodiment antagonizes rescue of DFMO-induced cytostasis by exogenous spermidine. In particular, CHO-K1 (A), Jurkat (B), L1210 (C), MDA-MB-231 (D), ZR-75-1 (E) and MCF-7 cells (F) were grown to near confluency or saturation (for 4 to 11 d according to the cell line considered) with the indicated concentrations of spermidine in medium containing 1 mM aminoguanidine, in the presence of DFMO (●), BNSD-X (□), DFMO plus BNSD-X (▪), or in the absence of either agent (∘), and total DNA content per culture was then determined. The optimal concentration of either DFMO (1 to 5 mM) or BNSD-X (50 or 100 μM) was used for the each cell line as determined in pilot experiments. Data are presented as the mean±SD for triplicate cultures from one out of at least three identical experiments for each cell line;
as §2

The mark [5] stands for this setting: T-47D breast cancer cells, read-out: Ki, inhibition of [3H]putrescine uptake.
The mark [6] stands for this setting: T-47D breast cancer cells, read-out: Ki, inhibition of [3H]spermidine uptake.
Setting [7] is: T-47D breast cancer cells, read-out: Ki, inhibition of [14C]spermine uptake.

This note sets out measurements from patent US7425579B2, “Methods for inhibiting activity of polyamine transporters” (Universite Laval, priority 1998, dated 2008).

A word on the Ki: it is the dissociation constant of the complex between target and ligand, obtained from inhibition or displacement. The term Km denotes the concentration of substrate that gives half-maximal velocity.

Structures are written as SMILES. Like-named read-outs stand apart in the source and are kept apart here.

With `NCCCN(CCCN)CCCN(CCCN)CCCN` [19a], the inhibitory constant (Ki) came out at 1600 ± 400 nM in data set [1] (setting [5]), 8300 ± 800 nM in data set [1] (setting [6]) and 6200 ± 1700 nM in data set [1] (setting [7]). The “times less potent than BSD-3 as a spermidine transport antagonist” value in data set [1] (T-47D cells) is on record as “about 5 times”. Also, the “cytotoxicity in the absence of aminoguanidine” value in the data set on T-47D cells [2] was “considerably more cytotoxic than their spermidine-like homologs”. Moreover, in the data set on T-47D cells [3], the “effect on spermidine-mediated reversal of DFMO-induced growth inhibition, T-47D” value is “exhibited no activity”. The “effect on spermidine-mediated reversal of DFMO-induced growth inhibition, CHO-K1” value with CHO-K1 cells is “exhibited no activity”.
`NCCCCN(CCCN)CCCN(CCCN)CCCCN` [19b]: the Ki in data set [1] (setting [5]) was found to be 240 ± 30 nM; in data set [1] (setting [6]) it was 1700 ± 400 nM; in data set [1] (setting [7]) it was 2800 ± 600 nM. In addition, the “effect on spermidine-mediated reversal of DFMO-induced growth inhibition, T-47D” value with T-47D cells [3] is reported as “significantly potentiated DFMO-induced cytostasis”.
Regarding `NCCCCN(CCCN)Cc1ccc(CN(CCCN)CCCCN)cc1` [28b], the inhibition constant (Ki) in data set [1] (setting [5]) was found to be 280 ± 20 nM; in data set [1] (setting [6]), 2000 ± 200 nM; in data set [1] (setting [7]), 2900 ± 600 nM. The “effect on spermidine-mediated reversal of DFMO-induced growth inhibition, T-47D” value in the data set with T-47D cells [3] was “did not increase the range of spermidine concentrations able to reverse inhibition of cell proliferation by DFMO”. The “effect on spermidine-mediated reversal of DFMO-induced growth inhibition, CHO-K1” value in the data set on CHO-K1 cells was “afforded increased resistance to exogenous spermidine”.
Take `NCCCCNCCCN` [Spermidine, reference compound]: the Km worked out at 4.4 ± 0.9 µM in data set [1] (T-47D breast cancer cells, substrate itself, read-out: Km for [3H]spermidine uptake) and 4.4 ± 0.9 µM in data set [1] (T-47D cells, Lineweaver-Burke analysis, 0.01-300 μM substrate, read-out: Km for spermidine uptake (Table 2)). Also, the “spermidine concentration that completely counteracts DFMO-induced cytostasis” value in data set [4] was in the range of 0.3 to 1 µM.
